Test results from patent publication US5106856A, “[(Arylalkylpiperidin-4-yl)methyl]-2a,3,4,5-tetrahydro- 1(2H)-acenaphthylen-1-ones and related compounds” (priority 1991, dated 1992).
Structures can show the parent of a compound that is named as a salt.

How the values were obtained:
[1] = tested on: Scopolamine Induced Memory Deficit; assay: Dark Avoidance Assay (reversal of scopolamine induced memory deficit); type: in vivo; details: mice, s.c., tested again 24 hours later
Method: In this assay mice are tested for their ability to remember an unpleasant stimulus for a period of 24 hours. A mouse is placed in a chamber that contains a dark compartment; a strong incandescent light drives it to the dark compartment, where an electric shock is administered through metal plates on the floor. The animal is removed from the testing apparatus and tested again, 24 hours later, for the ability to remember the electric shock.
If scopolamine, an anticholinergic that is known to cause memory impairment, is administered before an animal's initial exposure to the test chamber, the animal re-enters the dark compartment shortly after being placed in the test chamber 24 hours later. This effect of scopolamine is blocked by an active test compound, resulting in a greater interval before re-entry into the dark compartment.
The results for an active compound are expressed as the percent of a group of animals in which the effect of scopolamine is blocked, as manifested by an increased interval between being placed in the test chamber and re-entering the dark compartment.
Results of this assay for some of the compounds of this invention and those for tacrine and pilocarpine (reference compounds) are presented in Table 2.

[2] = target: T1, Brain AChE (acetylcholinesterase, rat striatum) (Rattus norvegicus, UniProt P37136); assay: In vitro inhibition of acetylcholinesterase activity in rat striatum; type: biochemical, rat (male Wistar); details: read-out: Inhibitory Concentration, Brain AChE
T1 construct: corpora striata dissected free, weighed and homogenized in 19 volumes; from tissue; host or cells: corpus striatum homogenate of male Wistar rats
T1 sequence (P37136 32-614): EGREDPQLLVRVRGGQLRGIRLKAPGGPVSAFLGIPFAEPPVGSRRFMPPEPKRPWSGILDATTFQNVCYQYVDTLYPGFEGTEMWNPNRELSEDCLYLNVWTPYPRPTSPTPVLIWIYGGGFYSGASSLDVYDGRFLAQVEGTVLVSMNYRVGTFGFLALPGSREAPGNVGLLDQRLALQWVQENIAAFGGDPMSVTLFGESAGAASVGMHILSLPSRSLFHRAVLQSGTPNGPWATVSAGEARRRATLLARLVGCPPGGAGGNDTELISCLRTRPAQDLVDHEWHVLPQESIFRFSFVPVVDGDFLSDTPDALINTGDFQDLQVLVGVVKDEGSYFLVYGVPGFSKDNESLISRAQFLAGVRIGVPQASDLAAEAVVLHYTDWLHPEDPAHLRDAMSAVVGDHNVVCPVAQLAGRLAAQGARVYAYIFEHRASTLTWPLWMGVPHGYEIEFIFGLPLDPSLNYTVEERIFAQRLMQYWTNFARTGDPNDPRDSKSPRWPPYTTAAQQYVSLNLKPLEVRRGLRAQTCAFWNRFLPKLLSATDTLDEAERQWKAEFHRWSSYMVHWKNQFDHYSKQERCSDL
Method: Cholinesterases are found throughout the body, both in the brain and in serum. However, only brain acetylcholinesterase (AChE) distribution is correlated with central cholinergic innervation.
The method described below was used in this invention for assaying cholinesterase activity.
4. A 2 mM stock solution of the test drug is made up in a suitable solvent and q.s. to volume with 0.5 mM DTNB (reagent 3). Drugs are serially diluted (1:10) such that the final concentration (in cuvette) is 10^-4 M and screened for activity. If active, IC50 values are determined from the inhibitory activity of subsequent concentrations.
Male Wistar rats are decapitated, brains rapidly removed, corpora striata dissected free, weighed and homogenized in 19 volumes (approximately 7 mg protein/ml) of 0.05M phosphate buffer, pH 7.2 using a Potter-Elvehjem homogenizer. A 25 microliter aliquot of the homogenate is added to 1.0 milliter vehicle or various concentrations of the test drug and preincubated for 10 minutes at 37° C.
Enzyme activity is measured with the Beckman DU-50 spectrophotometer. This method can be used for IC50 determinations and for measuring kinetic constants.
Substrate concentration is 10 mM diluted 1:2 in assay yielding final concentration of 5 mM. DTNB concentration is 0.5 mM yielding 0.25 mM final concentration. [formula]
IC50 values are calculated from log-probit analysis.

SMILES	% of Animals with Scopolamine Induced Memory Deficit Reversal ([1]; 5 mg/kg of body weight) [%]	IC50 [2] [µM]	% of Animals with Scopolamine Induced Memory Deficit Reversal ([1]; 0.1 mg/kg of body weight) [%]
CC[C@@H]1C(=O)OC[C@@H]1Cc1cncn1C [Pilocarpine, reference compound]	23		
O=C1c2cccc3c2C(CCC3)C1CC1CCN(Cc2cccc(F)c2)CC1 (stereo not shown) [2-[[N-(3-Fluorobenzyl)piperidin-4-yl]methyl]-2a,3,4,5-tetrahydro-1(2H)-acenaphthylen-1-one hydrochloride]		4.1	20
O=C1c2cccc3c2C(CCC3)C1CC1CCN(Cc2ccccc2)CC1 (stereo not shown) [2-[(N-Benzylpiperidin-4-yl)methyl]-2a,3,4,5-tetrahydro-1(2H)-acenaphthylen-1-one hydrochloride]		1.02	
